Results as given in patent US20250162989A1, “USP30 INHIBITORS AND USES THEREOF” (Vincere Biosciences, Inc., priority 2021, published 2025).

Target: recombinant USP30 (amino acids 57-517 of the human sequence) (Homo sapiens (Human), UniProt Q70CQ3)
Assay: In vitro USP30 biochemical assay (Ubiquitin-Rhodamine substrate)
Settings: fluorescence
Experimental: In vitro biochemical assay to establish the potency of compounds for USP30 inhibition: a 384-well plate assay using a fluorophore tagged substrate of USP30 was used for in vitro screening of compounds. Each compound was tested at
10 different concentrations (0.5 to 10,000 nM) in duplicate wells. […] Data were analyzed using Graph Pad Prism software with a four-parameter (floating slope) fit to log concentration data to determine IC50s.

[1] = 1.5 nM recombinant USP30, 25 nM Ubiquitin-Rhodamine
[2] = […] recombinant USP30, 25 nM Ubiquitin-Rhodamine

recombinant USP30 (amino acids 57-517 of the human sequence), sequence (Q70CQ3 57-517): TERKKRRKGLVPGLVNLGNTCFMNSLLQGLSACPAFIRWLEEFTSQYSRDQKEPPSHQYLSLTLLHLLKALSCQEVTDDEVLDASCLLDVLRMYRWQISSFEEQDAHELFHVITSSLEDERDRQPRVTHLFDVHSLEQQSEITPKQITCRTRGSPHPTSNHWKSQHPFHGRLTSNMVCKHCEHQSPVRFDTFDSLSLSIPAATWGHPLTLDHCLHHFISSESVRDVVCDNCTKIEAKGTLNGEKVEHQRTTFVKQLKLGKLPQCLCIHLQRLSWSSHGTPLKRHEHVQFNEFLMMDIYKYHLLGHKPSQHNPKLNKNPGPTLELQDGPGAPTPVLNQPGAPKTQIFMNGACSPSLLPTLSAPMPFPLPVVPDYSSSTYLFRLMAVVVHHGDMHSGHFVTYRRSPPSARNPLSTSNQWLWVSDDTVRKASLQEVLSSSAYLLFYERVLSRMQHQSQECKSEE

| SMILES | IC50 [1] [µM] | IC50 [2] [µM] |
| --- | --- | --- |
| CC(C)(C)NS(=O)(=O)c1ccc(NC(=O)[C@H](Cc2ccccc2)NC(=O)N2CCOCC2)cc1 [Compound I-184] | 1 to 10 | – |
| CC(C)(C)NS(=O)(=O)c1cccc2c(NC(=O)[C@H](Cc3ccccc3)NC(=O)C3CCNCC3)cccc12 [Compound I-187] | – | > 10 |
| CC(C)(C)NS(=O)(=O)c1ccc(NC(=O)[C@H](Cc2ccccc2)NC(=O)c2cncnc2)cc1 [Compound I-188] | 0.05 to 1 | – |
| CC(C)(C)NS(=O)(=O)c1ccc(NC(=O)[C@H](Cc2ccccc2)NC(=O)c2ccc3nn[nH]c3c2)cc1 [Compound I-189] | 0.05 to 1 | – |
| CC(C)(C)NS(=O)(=O)c1ccc(NC(=O)[C@H](Cc2ccccc2)NC(=O)c2ccc3cn[nH]c3c2)cc1 [Compound I-190] | 1 to 10 | – |
| CC(C)(C)NS(=O)(=O)c1ccc(NC(=O)[C@H](Cc2ccccc2)NC(=O)c2ncccn2)cc1 [Compound I-191] | – | > 10 |
| CC(C)(C)NS(=O)(=O)c1ccc(NC(=O)[C@H](Cc2ccccc2)NC(=O)C2CCNCC2)cc1 [Compound I-192] | 1 to 10 | – |
| CC(C)(C)NS(=O)(=O)c1ccc(NC(=O)[C@H](Cc2ccccc2)NC(=O)c2ccc3nc[nH]c3c2)cc1 [Compound I-194] | 1 to 10 | – |
| CC(C)(C)NS(=O)(=O)c1cccc2c(NC(=O)[C@H](Cc3ccccc3)NC(=O)N3CCOCC3)cccc12 [Compound I-195] | 0.05 to 1 | – |
| CC(C)(C)NS(=O)(=O)c1cccc2c(NC(=O)[C@H](Cc3ccccc3)NC(=O)N3CC4(COC4)C3)cccc12 [Compound I-197] | 0.05 to 1 | – |
| CN1CCN(C(=O)N[C@@H](Cc2ccccc2)C(=O)Nc2cccc3c(S(=O)(=O)NC(C)(C)C)cccc23)CC1 [Compound I-198] | – | > 10 |
| CC(C)C[C@H](NC(=O)c1ccc(F)cc1)C(=O)Nc1ccc(S(=O)(=O)NC(C)(C)C(F)(F)F)nc1 [Compound I-203] | 0.05 to 1 | – |
| CC(C)C[C@H](NC(=O)c1ccc(F)cn1)C(=O)Nc1ccc(S(=O)(=O)NC(C)(C)C(F)(F)F)cc1 [Compound I-204] | 0.05 to 1 | – |
| CC(C)[C@H](NC(=O)c1ccc(F)cc1)C(=O)Nc1ccc(S(=O)(=O)NC(C)(C)C)cc1 [Compound I-206] | 0.05 to 1 | – |
| CC(C)(NS(=O)(=O)c1ccc(NC(=O)[C@H](CC2CCOCC2)NC(=O)c2ccc(F)cn2)cc1)C(F)(F)F [Compound I-207] | 0.05 to 1 | – |
| CC(C)C[C@H](NC(=O)c1ccc(F)cn1)C(=O)Nc1ccc(S(=O)(=O)NC(C)(C)C(F)(F)F)nc1 [Compound I-210] | 0.05 to 1 | – |

Results, then the molecule that gave them:

| IC50 [1] [µM] | IC50 [2] [µM] | SMILES |
| --- | --- | --- |
| – | > 10 | CC(C)(C)NS(=O)(=O)c1cccc2c(NC[C@H](O)[C@H](Cc3ccccc3)NC(=O)c3ccc(F)cc3)cccc12 [Compound I-211] |
| 0.05 to 1 | – | CC(C)(NS(=O)(=O)c1ccc(NC(=O)[C@H](Cc2ccccn2)NC(=O)c2ccc(F)cc2)cc1)C(F)(F)F [Compound I-212] |
| 0.05 to 1 | – | CC(C)(CF)NS(=O)(=O)c1ccc(NC(=O)[C@H](Cc2ccccn2)NC(=O)c2ccc(F)cc2)cc1 [Compound I-213] |
| 0.05 to 1 | – | CC(C)(C)NS(=O)(=O)c1ccc(NC(=O)[C@H](CC2CCN(C(=O)OCc3ccccc3)CC2)NC(=O)N2CCOCC2)cc1 [Compound I-214] |
| 1 to 10 | – | CC(C)(C)NS(=O)(=O)c1ccc(NC(=O)[C@H](CC2CCNCC2)NC(=O)N2CCOCC2)cc1 [Compound I-215] |
| 1 to 10 | – | CC(C)C[C@H](NC(=O)N1CCOCC1)C(=O)Nc1cccc2c(S(=O)(=O)NC(C)(C)C)cccc12 [Compound I-216] |
| 1 to 10 | – | CN1CCC(C[C@H](NC(=O)N2CCOCC2)C(=O)Nc2ccc(S(=O)(=O)NC(C)(C)C)cc2)CC1 [Compound I-217] |
| – | > 10 | CN1CCC(C[C@H](NC(=O)N2CCN(C)CC2)C(=O)Nc2ccc(S(=O)(=O)NC(C)(C)C)cc2)CC1 [Compound I-218] |
| – | > 10 | CN1CCN(C(=O)N[C@@H](CC2CCNCC2)C(=O)Nc2ccc(S(=O)(=O)NC(C)(C)C)cc2)CC1 [Compound I-219] |
| – | > 10 | CC(C)C[C@H](NC(=O)c1ccc(F)cc1)[C@@H](O)CNc1ccc(S(=O)(=O)NC(C)(C)C)cc1 [Compound I-220] |
